Experimental findings from US20260048047A1, “SMALL-MOLECULE ACTIVATORS OF MYCOBACTERIUM TUBERCULOSIS ADENYLYL CYCLASE” (priority 2022, published 2026) are described below.

This assay deals with M. tuberculosis. The assay is described as follows: Extracellular activity against M. tuberculosis in cholesterol media (Alamar Blue reduction assay). The class given is cell-based, Mycobacterium tuberculosis. Particulars: Mycobacterium tuberculosis, 240 h, 7H12-Cholesterol media, 10 days; read-out: Cholesterol broth: alamar blue--EC50.

pEC50: −log10 of the molar value.

The pEC50 is the negative decadic logarithm of the EC50, by convention in mol/L. Consider `Cn1ncnc1CC(=O)N1CCC(c2nc(-c3ccc(Cl)cc3)no2)CC1` [Compound 167, 1-(4-(3-(4-chlorophenyl)-1,2,4-oxadiazol-5-yl)piperidin-1-yl)-2-(1-methyl-1H-1,2,4-triazol-5-yl)ethan-1-one], for which the pEC50 is 6.66. With `Cn1ncnc1CC(=O)N1CCC(n2nnc(-c3ccc(Cl)cc3)n2)CC1` [Compound 168, 1-(4-(5-(4-chlorophenyl)-2H-tetrazol-2-yl)piperidin-1-yl)-2-(1-methyl-1H-1,2,4-triazol-5-yl)ethan-1-one] the figure was 6.33; with `Cn1ncnc1CC(=O)N1CCC(c2nc(-c3ccc(Cl)c(OC(F)(F)F)c3)no2)CC1` [Compound 169, 1-(4-(3-(4-chloro-3-(trifluoromethoxy)phenyl)-1,2,4-oxadiazol-5-yl)piperidin-1-yl)-2-(1-methyl-1H-1,2,4-triazol-5-yl)ethan-1-one], 6.48; with `Cn1ncnc1CC(=O)N1CCC(c2nc(-c3ccc(OC(F)(F)F)cc3)no2)CC1` [Compound 170, 2-(1-methyl-1H-1,2,4-triazol-5-yl)-1-(4-(3-(4-(trifluoromethoxy)phenyl)-1,2,4-oxadiazol-5-yl)piperidin-1-yl)ethan-1-one], 6.89. With `Cn1ncnc1CC(=O)N1CCC(n2nnc(-c3ccc(C(F)(F)F)cc3)n2)CC1` [Compound 171, 2-(1-methyl-1H-1,2,4-triazol-5-yl)-1-(4-(5-(4-(trifluoromethyl)phenyl)-2H-tetrazol-2-yl)piperidin-1-yl)ethan-1-one] the figure was 6.02. Consider `Cn1ncnc1CC(=O)N1CCC(c2nc(-c3ccc(C(F)F)cc3)no2)CC1` [Compound 172, 1-(4-(3-(4-(difluoromethyl)phenyl)-1,2,4-oxadiazol-5-yl)piperidin-1-yl)-2-(1-methyl-1H-1,2,4-triazol-5-yl)ethan-1-one], for which the pEC50 is 5.68. As to `Cn1ncnc1CC(=O)N1CCC(c2noc(C34CC(F)(C3)C4)n2)CC1` [Compound 173, 1-(4-(5-(3-fluorobicyclo[1.1.1]pentan-1-yl)-1,2,4-oxadiazol-3-yl)piperidin-1-yl)-2-(1-methyl-1H-1,2,4-triazol-5-yl)ethan-1-one], the pEC50 is under 5.00. With `Cn1ncnc1CC(=O)N1CCC(c2nc(-c3ccc(CF)cc3)no2)CC1` [Compound 174, 1-(4-(3-(4-(fluoromethyl)phenyl)-1,2,4-oxadiazol-5-yl)piperidin-1-yl)-2-(1-methyl-1H-1,2,4-triazol-5-yl)ethan-1-one] the figure was 5.65. In the case of `Cn1ncnc1CC(=O)N1CCC(c2nc(-c3ccc(S(F)(F)(F)(F)F)cc3)no2)CC1` [Compound 175, 2-(1-methyl-1H-1,2,4-triazol-5-yl)-1-(4-(3-(4-(pentafluoro-16-sulfaneyl)phenyl)-1,2,4-oxadiazol-5-yl)piperidin-1-yl)ethan-1-one], the pEC50 is 5.79. With `Cn1ncnc1CC(=O)N1CCC(c2nc(-c3ccc(Cl)c(F)c3)no2)CC1` [Compound 176, 1-(4-(3-(4-chloro-3-fluorophenyl)-1,2,4-oxadiazol-5-yl)piperidin-1-yl)-2-(1-methyl-1H-1,2,4-triazol-5-yl)ethan-1-one] the figure was 6.94; with `Cn1ncnc1CC(=O)N1CCC(n2nnc(-c3ccc(Cl)c(F)c3)n2)CC1` [Compound 177, 1-(4-(5-(4-chloro-3-fluorophenyl)-2H-tetrazol-2-yl)piperidin-1-yl)-2-(1-methyl-1H-1,2,4-triazol-5-yl)ethan-1-one], 6.77; with `Cn1ncnc1CC(=O)N1CCC(c2nc(-c3ccc(Cl)cc3F)no2)CC1` [Compound 178, 1-(4-(3-(4-chloro-2-fluorophenyl)-1,2,4-oxadiazol-5-yl)piperidin-1-yl)-2-(1-methyl-1H-1,2,4-triazol-5-yl)ethan-1-one], 6.70. With `Cn1ncnc1CC(=O)N1CCC(c2nc(-c3ccc(F)cc3Cl)no2)CC1` [Compound 179, 1-(4-(3-(2-chloro-4-fluorophenyl)-1,2,4-oxadiazol-5-yl)piperidin-1-yl)-2-(1-methyl-1H-1,2,4-triazol-5-yl)ethan-1-one] the figure was 5.71. Turning to `Cn1ncnc1CC(=O)N1CCC(c2nc(-c3ccc(F)cc3F)no2)CC1` [Compound 180, 1-(4-(3-(2,4-difluorophenyl)-1,2,4-oxadiazol-5-yl)piperidin-1-yl)-2-(1-methyl-1H-1,2,4-triazol-5-yl)ethan-1-one], the pEC50 was 6.32.

For the molecule `Cn1ncnc1CC(=O)N1CCC(c2nc(-c3ccc(F)c(C(F)(F)F)c3)no2)CC1` [Compound 181], the pEC50 is 6.33. With `Cn1ncnc1CC(=O)N1CCC(n2nnc(-c3ccc(F)c(Cl)c3)n2)CC1` [Compound 182, 1-(4-(5-(3-chloro-4-fluorophenyl)-2H-tetrazol-2-yl)piperidin-1-yl)-2-(1-methyl-1H-1,2,4-triazol-5-yl)ethan-1-one] the figure was 6.43; with `Cn1ncnc1CC(=O)N1CCC(c2nc(-c3ccc(F)c(Cl)c3)no2)CC1` [Compound 183, 1-(4-(3-(3-chloro-4-fluorophenyl)-1,2,4-oxadiazol-5-yl)piperidin-1-yl)-2-(1-methyl-1H-1,2,4-triazol-5-yl)ethan-1-one], 6.68. As to `Cn1ncnc1CC(=O)N1CCC(c2nc(-c3ccc(F)c(F)c3)no2)CC1` [Compound 184, 1-(4-(3-(3,4-difluorophenyl)-1,2,4-oxadiazol-5-yl)piperidin-1-yl)-2-(1-methyl-1H-1,2,4-triazol-5-yl)ethan-1-one], the pEC50 is 6.34. In the case of `Cn1ncnc1CC(=O)N1CCC(n2nnc(-c3ccc(F)c(F)c3)n2)CC1` [Compound 185, 1-(4-(5-(3,4-difluorophenyl)-2H-tetrazol-2-yl)piperidin-1-yl)-2-(1-methyl-1H-1,2,4-triazol-5-yl)ethan-1-one], the pEC50 was 6.13.

In the case of `Cn1ncnc1CC(=O)N1CCC(c2nc(-c3ccc(F)cc3)no2)CC1` [Compound 186, 1-(4-(3-(4-fluorophenyl)-1,2,4-oxadiazol-5-yl)piperidin-1-yl)-2-(1-methyl-1H-1,2,4-triazol-5-yl)ethan-1-one], the pEC50 is 6.32. `Cn1ncnc1CC(=O)N1CCC(n2nnc(-c3ccc(F)cc3)n2)CC1` [Compound 187, 1-(4-(5-(4-fluorophenyl)-2H-tetrazol-2-yl)piperidin-1-yl)-2-(1-methyl-1H-1,2,4-triazol-5-yl)ethan-1-one]: the pEC50 is 5.51. With `Cn1nnnc1CC(=O)N1CCC(c2nc(-c3ccc(F)cc3)no2)CC1` [Compound 188, 1-(4-(3-(4-fluorophenyl)-1,2,4-oxadiazol-5-yl)piperidin-1-yl)-2-(1-methyl-1H-tetrazol-5-yl)ethan-1-one], the pEC50 is 5.20. With `Cc1noc(CC(=O)N2CC3CC2CC3c2nc(C3CCCCC3)no2)n1` (stereo not drawn) [Compound 189, 1-(5-(3-cyclohexyl-1,2,4-oxadiazol-5-yl)-2-azabicyclo[2.2.1]heptan-2-yl)-2-(3-methyl-1,2,4-oxadiazol-5-yl)ethan-1-one], the pEC50 is under 5.00.

As for `Cc1noc(CC(=O)N2CC3CC2CC3c2nc(-c3ccc(Cl)c(Cl)c3)no2)n1` (stereo not drawn) [Compound 190, 1-(5-(3-(3,4-dichlorophenyl)-1,2,4-oxadiazol-5-yl)-2-azabicyclo[2.2.1]heptan-2-yl)-2-(3-methyl-1,2,4-oxadiazol-5-yl)ethan-1-one], the pEC50 is 5.54. Regarding `Cc1noc(CC(=O)N2CC3CC2CC3c2nc(C3CCC(F)(F)CC3)no2)n1` (stereo not drawn) [Compound 191, 1-(5-(3-(4,4-difluorocyclohexyl)-1,2,4-oxadiazol-5-yl)-2-azabicyclo[2.2.1]heptan-2-yl)-2-(3-methyl-1,2,4-oxadiazol-5-yl)ethan-1-one], the pEC50 was under 5.00. With `Cc1noc(CC(=O)N2CC3CC2CC3c2nc(-c3ccc(F)c(F)c3)no2)n1` (stereo not drawn) [Compound 192, 1-(5-(3-(3,4-difluorophenyl)-1,2,4-oxadiazol-5-yl)-2-azabicyclo[2.2.1]heptan-2-yl)-2-(3-methyl-1,2,4-oxadiazol-5-yl)ethan-1-one] the figure was under 5.00. With `Cc1noc(CC(=O)N2CC3CC2CC3c2nc(-c3ccc(F)cc3)no2)n1` (stereo not drawn) [Compound 193, 1-(5-(3-(4-fluorophenyl)-1,2,4-oxadiazol-5-yl)-2-azabicyclo[2.2.1]heptan-2-yl)-2-(3-methyl-1,2,4-oxadiazol-5-yl)ethan-1-one] the figure was under 5.00; with `Cc1nonc1CC(=O)N1CC2CC1CC2c1nc(C2CCCCC2)no1` (stereo not drawn) [Compound 194, 1-(5-(3-cyclohexyl-1,2,4-oxadiazol-5-yl)-2-azabicyclo[2.2.1]heptan-2-yl)-2-(4-methyl-1,2,5-oxadiazol-3-yl)ethan-1-one], 6.10. Regarding `Cc1nonc1CC(=O)N1CC2CC1CC2c1nc(-c2ccc(Cl)c(Cl)c2)no1` (stereo not drawn) [Compound 195, 1-(5-(3-(3,4-dichlorophenyl)-1,2,4-oxadiazol-5-yl)-2-azabicyclo[2.2.1]heptan-2-yl)-2-(4-methyl-1,2,5-oxadiazol-3-yl)ethan-1-one], the pEC50 is 7.03.

As to `Cc1nonc1CC(=O)N1CC2CC1CC2c1nc(C2CCC(F)(F)CC2)no1` (stereo not drawn) [Compound 196, 1-(5-(3-(4,4-difluorocyclohexyl)-1,2,4-oxadiazol-5-yl)-2-azabicyclo[2.2.1]heptan-2-yl)-2-(4-methyl-1,2,5-oxadiazol-3-yl)ethan-1-one], the pEC50 is 5.90. With `Cc1nonc1CC(=O)N1CC2CC1CC2c1nc(C2CCC(F)C2)no1` (stereo not drawn) [Compound 197, 1-(5-(3-(3-fluorocyclopentyl)-1,2,4-oxadiazol-5-yl)-2-azabicyclo[2.2.1]heptan-2-yl)-2-(4-methyl-1,2,5-oxadiazol-3-yl)ethan-1-one] the figure was 4.81; with `Cc1nonc1CC(=O)N1CC2CC1CC2c1nc(-c2ccc(F)c(F)c2)no1` (stereo not drawn) [Compound 198, 1-(5-(3-(3,4-difluorophenyl)-1,2,4-oxadiazol-5-yl)-2-azabicyclo[2.2.1]heptan-2-yl)-2-(4-methyl-1,2,5-oxadiazol-3-yl)ethan-1-one], 6.61; with `Cc1nonc1CC(=O)N1CC2CC1CC2c1nc(-c2ccc(F)cc2)no1` (stereo not drawn) [Compound 199, 1-(5-(3-(4-fluorophenyl)-1,2,4-oxadiazol-5-yl)-2-azabicyclo[2.2.1]heptan-2-yl)-2-(4-methyl-1,2,5-oxadiazol-3-yl)ethan-1-one], 6.49.
